Earlier results in article PMC7395068, “The evolution of strategies to minimise the risk of human drug-induced liver injury (DILI) in drug discovery and development” (Archives of Toxicology, 2020).
Where two headings read alike, the source gives them in different places.

Details: cited from earlier work
[1] = binary in vivo human DILI call, ref Chen 2016
[2] = human DILI, LTKB DILIrank category, ref Chen 2016

Structure (SMILES) | DILI +VE (5-8), DILI -VE (-4) [1] | DILI severity category [2] | DILI +VE (5-8), DILI -VE (-4) (in vivo) | DILI severity category (in vivo)
Clc1ccc2c(c1)C(c1ccccc1)=NCc1nncn1-2 [estazolam] | -VE | vNo-DILI-Concern | – | –
C[C@]12CC[C@@H]3c4ccc(OC(=O)N(CCCl)CCCl)cc4CC[C@H]3[C@@H]1CC[C@@H]2O [estramustine] | +VE | vMost-DILI-Concern | – | –
CN1CCN(C(=O)O[C@H]2c3nccnc3C(=O)N2c2ccc(Cl)cn2)CC1 [eszopiclone] | -VE | Ambiguous DILI-concern | – | –
CCCCCCCC/C=C\CCCCCCCC(=O)O.NCCO [ethanolamine oleate] | -VE | vNo-DILI-Concern | – | –
CCc1cc(C(N)=S)ccn1 [ethionamide] | +VE | vLess-DILI-Concern | – | –
CCC1(C)CC(=O)NC1=O (centres unmarked) [ethosuximide] | -VE | Ambiguous DILI-concern | – | –
CCOC(=O)c1cncn1[C@H](C)c1ccccc1 [etomidate] | – | – | -VE | vNo-DILI-Concern
C#C[C@]1(O)CC[C@H]2[C@@H]3CCC4=CC(=O)CC[C@@H]4[C@H]3C(=C)C[C@@]21CC [etonogestrel] | -VE | Ambiguous DILI-concern | – | –
Cc1cc(C#N)cc(C)c1Oc1nc(Nc2ccc(C#N)cc2)nc(N)c1Br [etravirine] | +VE | vMost-DILI-Concern | – | –
CO[C@H]1C[C@@H]2CC[C@@H](C)[C@@](O)(O2)C(=O)C(=O)N2CCCC[C@H]2C(=O)O[C@H]([C@H](C)C[C@@H]2CC[C@@H](OCCO)[C@H](OC)C2)CC(=O)[C@H](C)/C=C(\C)[C@@H](O)[C@@H](OC)C(=O)[C@H](C)C[C@H](C)/C=C/C=C/C=C/1C [everolimus] | -VE | Ambiguous DILI-concern | – | –
C/C(=N\O)C(C)NCC(C)(C)CNC(C)/C(C)=N/O (centres unmarked) [exametazime] | -VE | vNo-DILI-Concern | – | –
C=C1C[C@@H]2[C@H](CC[C@]3(C)C(=O)CC[C@@H]23)[C@@]2(C)C=CC(=O)C=C12 [exemestane] | +VE | vMost-DILI-Concern | – | –
O=C(c1cc(O)c(O)c(O)c1)c1ccc(O)c(O)c1O [exifone] | +VE | vMost-DILI-Concern | – | –
CN1CCC(Nc2ncc3ncnc(Nc4ccc(F)c(Cl)c4)c3n2)CC1 [falnidamol] | – | – | +VE | vMost-DILI-Concern
CC(=O)OCC(CCn1cnc2cnc(N)nc21)COC(C)=O [famciclovir] | -VE | Ambiguous DILI-concern | – | –
CC(C)(Oc1ccc(C(=O)c2ccc(Cl)cc2)cc1)C(=O)O [fenofibric acid] | -VE | Ambiguous DILI-concern | – | –
CC(C)C(=O)Oc1ccc(CO)cc1[C@H](CCN(C(C)C)C(C)C)c1ccccc1 [fesoterodine] | -VE | vNo-DILI-Concern | – | –

Structure (SMILES) | DILI +VE (5-8), DILI -VE (-4) [1] | DILI severity category [2] | DILI +VE (5-8), DILI -VE (-4) (in vivo) | DILI severity category (in vivo)
COc1cccc2c1[C@@H]1CN(CCCCn3c(=O)[nH]c4c(sc5ncc(-c6ccccc6)nc54)c3=O)C[C@@H]1CO2 [fiduxosin] | +VE | vMost-DILI-Concern | – | –
C[C@]12CCC(=O)C=C1CC[C@H]1[C@@H]3CC[C@](O)(C(=O)CO)[C@@]3(C)C[C@H](O)[C@@]12F [fludrocortisone] | -VE | vNo-DILI-Concern | – | –
O=C1OC2(c3ccc(O)cc3Oc3cc(O)ccc32)c2ccccc21 [fluorescein] | -VE | vNo-DILI-Concern | – | –
OCCN1CCN(CCCN2c3ccccc3Sc3ccc(C(F)(F)F)cc32)CC1 [fluphenazine] | -VE | Ambiguous DILI-concern | – | –
CCN(CC)CCN1C(=O)CN=C(c2ccccc2F)c2cc(Cl)ccc21 [flurazepam] | +VE | vLess-DILI-Concern | – | –
CO[C@H]1O[C@H](COS(=O)(=O)O)[C@@H](O[C@@H]2O[C@@H](C(=O)O)[C@@H](O[C@H]3O[C@H](COS(=O)(=O)O)[C@@H](O[C@@H]4O[C@H](C(=O)O)[C@@H](O[C@H]5O[C@H](COS(=O)(=O)O)[C@@H](O)[C@H](O)[C@H]5NS(=O)(=O)O)[C@H](O)[C@H]4O)[C@H](OS(=O)(=O)O)[C@H]3NS(=O)(=O)O)[C@H](O)[C@H]2OS(=O)(=O)O)[C@H](O)[C@H]1NS(=O)(=O)O [fondaparinux sodium] | +VE | vLess-DILI-Concern | – | –
CC(C)CN(C[C@@H](OP(=O)(O)O)[C@H](Cc1ccccc1)NC(=O)O[C@H]1CCOC1)S(=O)(=O)c1ccc(N)cc1 [fosamprenavir] | -VE | Ambiguous DILI-concern | – | –
C[C@@H](O[C@H]1OCCN(Cc2nc(O)n(P(=O)(O)O)n2)[C@H]1c1ccc(F)cc1)c1cc(C(F)(F)F)cc(C(F)(F)F)c1 [fosaprepitant] | -VE | Ambiguous DILI-concern | – | –
C[C@@H]1O[C@@H]1P(=O)(O)O [fosfomycin] | +VE | vLess-DILI-Concern | – | –
CCC(=O)O[C@@H](O[P@](=O)(CCCCc1ccccc1)CC(=O)N1C[C@H](C2CCCCC2)C[C@H]1C(=O)O)C(C)C [fosinopril] | +VE | vLess-DILI-Concern | – | –
O=C1NC(c2ccccc2)(c2ccccc2)C(=O)N1COP(=O)(O)O [fosphenytoin] | +VE | vMost-DILI-Concern | – | –
CC(C)c1cccc(C(C)C)c1OCOP(=O)(O)O [fospropofol] | +VE | vLess-DILI-Concern | – | –
CN[C@@H]1CCc2[nH]c3ccc(C(N)=O)cc3c2C1 [frovatriptan] | -VE | vNo-DILI-Concern | – | –
C[C@]12CC[C@@H]3c4ccc(O)cc4C[C@@H](CCCCCCCCC[S+]([O-])CCCC(F)(F)C(F)(F)F)[C@H]3[C@@H]1CC[C@@H]2O (some centres unmarked) [fulvestrant] | -VE | Ambiguous DILI-concern | – | –
CNC[C@H](O)[C@@H](O)[C@H](O)[C@H](O)CO.CNC[C@H](O)[C@@H](O)[C@H](O)[C@H](O)CO.O=C([O-])CN(CCN(CC(=O)[O-])CC(=O)O)CCN(CC(=O)O)C(COCc1ccccc1)C(=O)[O-].[Gd+3] (centres unmarked) [gadobenate dimeglumine] | – | – | -VE | vNo-DILI-Concern
CNC(=O)CN(CCN(CCN(CC(=O)[O-])CC(=O)NC)CC(=O)[O-])CC(=O)[O-].[Gd+3] [gadodiamide] | – | – | -VE | Ambiguous DILI-concern
O=C([O-])CN(CCN(CC(=O)[O-])CC(COP(=O)([O-])OC1CCC(c2ccccc2)(c2ccccc2)CC1)N(CC(=O)[O-])CC(=O)[O-])CC(=O)[O-].[Gd+3].[Na+].[Na+].[Na+] (centres unmarked) [gadofosveset trisodium] | – | – | -VE | vNo-DILI-Concern
